Experiment in data set [1]: not given
This is another data set of the same source.

Experiment in data set [2]: not given
The source holds these as a separate data set.

Experiment in data set [3]: not given
The source holds these as a separate data set.

Experiment in data set [4]: not given
The source holds these as a separate data set.

For `Cc1ccc(C)c(C(C)C)c1` [1,4-dimethyl-2-isopropylbenzene], the flash point came out at 64.7 °C.

For `CCCCc1cccc(C)c1` [1-butyl-3-methylbenzene], the flash point is 70.8 °C.

For the compound `CCCCc1ccc(C)cc1` [1-butyl-4-methylbenzene], the flash point came out at 71.2 °C.

With `CCc1cccc(C)c1C` [1-ethyl-2,3-dimethylbenzene], the flash point came out at 65.1 °C.

For the compound `CCc1ccc(C)cc1C` [1-ethyl-2,4-dimethylbenzene], the flash point came out at 57.1 °C.

For the compound `CCc1cc(C)cc(C)c1` [1-ethyl-3,5-dimethylbenzene], the flash point is 57.4 °C.

`Cc1ccccc1CC(C)C` [1-isobutyl-2-methylbenzene] displayed a flash point of 68.7 °C.

Compound `Cc1cc(C)cc(C(C)(C)C)c1` [1-tert -butyl-3,5-dimethylbenzene] had a flash point of 72 °C.

As for `CCc1c(C)cccc1C` [2-ethyl-1,3-dimethylbenzene], the flash point was determined as 62.0 °C.

Regarding `CCC(C)(C)c1ccccc1` [2-phenyl-2-methylbutane], the flash point stood at 59.4 °C. In data set [1], this compound returned a flash point of 65 °C.

In turn, `Cc1ccccc1C(C)(C)C` [2-tert -butyltoluene] had a flash point of 61.5 °C.

In turn, `CC(C)CC(C)Cc1ccccc1` (centres undefined) [(2,4-dimethylpentyl)benzene] showed a flash point of 87.0 °C.

Regarding `CCC(C)Cc1ccccc1` (centres undefined) [(2-methylbutyl)benzene], the flash point came out at 64.1 °C.

Compound `CC(C)[O-].CC(C)[O-].CC(C)[O-].[B+3]` [BORON ISOPROPOXIDE] displayed a flash point in data set [2] of 28.00 °C.

As for `C[O-].C[O-].C[O-].[B+3]` [BORON METHOXIDE], the flash point in data set [2] is -1.00 °C.

In data set [2], `CCCC[O-].CCCC[O-].CCCC[O-].[B+3]` [BORON n-BUTOXIDE] returned a flash point of 93.00 °C.

The compound `CCCCC(CC)C(=O)[O-].CCCCC(CC)C(=O)[O-].[Ca+2]` (centres undefined) [CALCIUM 2-ETHYLHEXANOATE] gave a flash point in data set [2] of 127.00 °C.

As for `CCCC[O][Sn]([CH2]CCC)([CH2]CCC)[O]CCCC` [DI-n-BUTYLDI-n-BUTOXYTIN], the flash point in data set [3] stood at 116.00 °C.

The compound `CCC[CH2][Sn]([CH2]CCC)([O]C(C)=O)[O]C(C)=O` [DI-n-BUTYLDIACETOXYTIN] came in with a flash point in data set [3] of 143.00 °C.

Take `CCC[CH2][Sn]([CH2]CCC)([O]C)[O]C` [DI-n-BUTYLDIMETHOXYTIN]: the flash point in data set [3] was found to be 110.00 °C.

For `C[C](C)(C)[Sn]([Cl])([Cl])[C](C)(C)C` [DI-t-BUTYLDICHLOROTIN], the flash point in data set [3] came out at 113.00 °C.

Consider `C=C[CH2][Sn]([CH2]C=C)([CH2]CCC)[CH2]CCC` [DIALLYLDI-n-BUTYLTIN], for which, in data set [3], the flash point worked out at 101.00 °C.

In turn, `C[N](C)[Sn]([CH3])([CH3])[CH3]` [DIMETHYLAMINOTRIMETHYLTIN] displayed a flash point in data set [3] of 1.00 °C.

In data set [2], `[CH3][Cd][CH3]` [DIMETHYLCADMIUM] gave a flash point of -18.00 °C.

With `CCCCCCCCCCC[CH2][Sn]([CH2]CCCCCCC)([CH2]CCCCCCC)[CH2]CCCCCCCCCCC` [DIOCTYLDILAURYLTIN], the flash point in data set [3] is 198.00 °C.

In data set [2], `c1ccc(Pc2ccccc2)cc1` [DIPHENYLPHOSPHINE] yielded a flash point of 110.00 °C.

In turn, `C#[C][Sn]([CH2]CCC)([CH2]CCC)[CH2]CCC` [ETHYNYLTRI-n-BUTYLTIN] showed a flash point in data set [3] of 73.00 °C.

Take `CC[N-]C.CC[N-]C.CC[N-]C.CC[N-]C.[Hf+4]` [HAFNIUM TETRAKIS(ETHYLMETHYLAMIDE)]: the flash point in data set [2] turned out to be 10.00 °C.

In data set [3], `CCC[CH2][Sn]([CH2]CCC)([CH2]CCC)[c]1ccccc1` [PHENYLTRI-n-BUTYLTIN] showed a flash point of 107.00 °C.

Regarding `CCC[CH2][Sn]([CH2]CCC)([CH2]CCC)[CH2]CCC` [TETRA-n-BUTYLTIN], the flash point in data set [3] stood at 107.00 °C.

On to `CCCCCCC[CH2][Sn]([CH2]CCCCCCC)([CH2]CCCCCCC)[CH2]CCCCCCC` [TETRA-n-OCTYLTIN], for which, in data set [3], the flash point turned out to be 94.00 °C.

Compound `C[CH2][Pb]([CH2]C)([CH2]C)[CH2]C` [TETRAETHYLLEAD] registered a flash point in data set [2] of 73.00 °C.

On to `[CH3][Sn]([CH3])([CH3])[CH3]` [TETRAMETHYLTIN], for which the flash point in data set [3] is -12.00 °C.

Consider `CC(C)C[O-].CC(C)C[O-].CC(C)C[O-].CC(C)C[O-].[Ti+4]` [TITANIUM ISOBUTOXIDE], for which the flash point in data set [2] was 77.00 °C.

Consider `C[O-].C[O-].C[O-].C[O-].[Ti+4]` [TITANIUM METHOXIDE], for which the flash point in data set [2] came out at 48.00 °C.

The compound `Cc1ccccc1[O-].Cc1ccccc1[O-].Cc1ccccc1[O-].Cc1ccccc1[O-].[Ti+4]` [TITANIUM METHYLPHENOXIDE] returned a flash point in data set [2] of 66.00 °C.

In data set [2], `C[N-]C.C[N-]C.C[N-]C.C[N-]C.[Ti+4]` [TITANIUM TETRAKIS(DIMETHYLAMIDE)] showed a flash point of 8.00 °C.

Compound `CCCC[O-].CCCC[O-].CCCC[O-].CCCC[O-].[Ti+4]` [TITANIUM n-BUTOXIDE] registered a flash point in data set [2] of 76.00 °C.

In the case of `CCOP(OCC)OCC` [TRIETHYLPHOSPHITE], the flash point in data set [2] worked out at 54.00 °C.

In data set [2], `CCCCCCCCP(CCCCCCCC)CCCCCCCC` [TRIOCTYLPHOSPHINE] came in with a flash point of 147.00 °C.

The compound `CC[N](CC)[Ta](=[N]C(C)(C)C)([N](CC)CC)[N](CC)CC` [TRIS(DIETHYLAMINO)(t-BUTYLIMINO) TANTALUM] had a flash point in data set [2] of 46.00 °C.

In data set [2], `C[Si](C)(C)OB(O[Si](C)(C)C)O[Si](C)(C)C` [TRIS(TRIMETHYLSILOXY)BORON] had a flash point of 42.00 °C.

`C=C[c-]1cccc1.[Fe+2].c1cc[cH-]c1` [VINYLFERROCENE] came in with a flash point in data set [2] of 62.00 °C.

In data set [2], `CCCCC(CC)C(=O)[O-].CCCCC(CC)C(=O)[O-].[Zn+2]` (centres undefined) [ZINC 2-ETHYLHEXANOATE] had a flash point of 127.00 °C.

In data set [2], `CC(C)(C)CCCCCC(=O)[O-].CC(C)(C)CCCCCC(=O)[O-].[Zn+2]` [ZINC NEODECANOATE] came in with a flash point of 102.00 °C.

Consider `CC[N-]C.CC[N-]C.CC[N-]C.CC[N-]C.[Zr+4]` [ZIRCONIUM TETRAKIS(ETHYLMETHYLAMIDE)], for which, in data set [2], the flash point amounted to 10.00 °C.

In turn, `CC(C)(C)[O-].CC(C)(C)[O-].CC(C)(C)[O-].CC(C)(C)[O-].[Zr+4]` [ZIRCONIUM t-BUTOXIDE] showed a flash point in data set [2] of 85.00 °C.

`CCCCc1ccccc1` [butylbenzene] came in with a flash point of 58.1 °C. The compound also came in with a flash point in data set [4] of 49 °C.

`CCCCCCCc1ccccc1` [heptylbenzene] yielded a flash point of 95.5 °C. This compound gave a flash point in data set [4] of 95 °C.

As to `CCCCCCc1ccccc1` [hexylbenzene], the flash point was 83.6 °C.

`CC(C)Cc1ccccc1` [isobutylbenzene]: the flash point was 50.1 °C. For the same compound, the flash point in data set [4] was determined as 55 °C.

With `CCc1cccc(CC)c1` [m -diethylbenzene], the flash point worked out at 51.1 °C.

`CCc1cccc(C(C)C)c1` [m -ethylcumene] returned a flash point of 63 °C.

For `CCCc1cccc(C)c1` [m -propyltoluene], the flash point was determined as 52 °C.

Compound `CC(C)(C)Cc1ccccc1` [neopentylbenzene] had a flash point of 50.1 °C.

The compound `Cc1ccccc1C` [o -xylene] showed a flash point of 30.1 °C.

With `CCCCCCCCc1ccccc1` [octylbenzene], the flash point is 107.1 °C.

Regarding `CCc1ccc(C(C)C)cc1` [p -ethylcumene], the flash point was found to be 65.8 °C.

As for `CCCc1ccc(C)cc1` [p -propyltoluene], the flash point was 56.4 °C.

The compound `CC(C)(C)c1ccccc1` [tert -butylbenzene] gave a flash point of 44.1 °C.

(Values after a flash point compilation (Sun et al. 2020).)
